How the values were obtained:
Parkinson's disease = conditions: cited from earlier work
[1] = system: unilaterally 6-OHDA-lesioned rats; test: 6-OHDA rat model: L-DOPA induced AIMs and drugs screening test; type: in vivo; conditions: for L-DOPA induced AIMs: Example II, 30 min before test
[2] = Pharmacokinetic profiling of the fixed dose combination product; type: in vivo; conditions: cynomolgus monkeys, oral; for Time of maximum plasma concentration: one buspirone (IR)/zolmitriptan (CR) 10 mg/1 mg tablet (batch 0614/2012), n=4
Text: Four non-naïve male cynomolgus monkeys (3.5 to 7 kg; Hainan Jingang Laboratory Animal Co. Ltd.) were used to evaluate the pharmacokinetics of the fixed dose combination product of the present invention. Animals were individually housed in stainless-steel mesh cages during in-life in accordance with the National Research Council “Guide for the Care and Use of Laboratory Animals” and fed twice daily with 120 g of Certified Monkey Diet daily (Beijing Vital Keao Feed Co., Ltd. Beijing, P. R. China). At test occasion, animals were fed the day before at 3:30 to 4:00 pm and the remaining food removed after approximately 1 to 1.5 hours of feeding (at 5:00 pm). Food was withheld until 4-hour post-dosage. The study was conducted in compliance with the Animal Welfare Act, the Guide for the Care and Use of Laboratory Animals, and the Office of Laboratory Animal Welfare (OLAW).
Each monkey was dosed one buspirone hydrochloride (IR)/zolmitriptan (CR) 10 mg/1 mg combination product (batch 0614/2012) orally using tablet gun, placing one tablet beyond the root of tongue. Subsequently, the animals' throat was massaged to aid passage of the tablet down the esophagus and 5-10 mL drinking water injected into its mouth using a syringe. After administration of drinking water, the animals' jaw was checked to see if the tablet was swallowed.
Blood samples were draw from a peripheral vessel from restrained, non-sedated animals at the following time points: pre-dose, 15, 30, 60 min, 2, 4, 8, 12 and 24 h post-dose into (K2) EDTA-coated tubes. Plasma was obtained from the blood samples by centrifugation (3,000×g for 10 minutes at 2 to 8° C.) within one hour of collection and stored frozen in a freezer at −70° C. until bio-analysis.
Analytes were extracted from plasma by mixing 200 μL 0.1% formic acid (FA) in 50% acetonitrile (ACN)/methanol (MeOH) containing 100 ng/mL Labetalol as internal standard with 50 μL plasma sample, followed by centrifugation (4000 rpm for 20 min).
Subsequently, 100 μL of supernatant was removed and mixed with 150 μL 0.1% FA in 25% MeOH/Water, vortexed 10 min and centrifuged for 10 min at 4000 rpm. Chromatographic separation from other constituents of the sample was achieved by ultra-performance liquid chromatography (Acquity, Waters), followed by tandem mass spectrometry (MS/MS) detection (API 4000, AB Sciex Instruments), injecting 20 μL sample. The analytes were separated by an ACE 5 phenyl (2.1×100 mm ID) column maintained at 40° C., using a gradient of A: 10 mM ammonium acetate in water and solvent B: 0.1% FA in 95% ACN)/water (table 4).
Buspirone, zolmitriptan and labetalol were detected at parent/daughter molecular mass of 386.10/122.20, 288.10/58.20 and 329.20/161.90 m/z, and a collision energy of 41, 25 and 50 eV, respectively. Retention times were 2.3, 1.3 and 2.0 min for buspirone, zolmitriptan and labetalol, respectively. Peak areas correlated linearly (r^2>0.997, 1/x^2 weighting) with buspirone and zolmitriptan concentrations in the range 0.5-1000 ng/mL. Lower limit of quantification (LLOQ) was 0.5 ng/mL for buspirone and zolmitriptan based on a signal-to-noise ratio>10:1.
The PK analysis was performed with non-linear mixed effects modelling using Phoenix NMLE 1.2 (Pharsight Corporation). A one- or two-compartment model with first-order absorption and elimination rate was fitted to the time-concentration profiles. Furthermore, model development included modelling of the data with an absorption lag-time (Tlag). To adequately characterise a potential lag-time, the plasma concentrations<LLOQ (Lower Limit of Quantification) was fixed to ½ of LLOQ (0.25 ng/mL) for the sample just prior to the first quantifiable concentration. Best model fit was evaluated based on basic goodness-of-fit plots, parameter precision, visual predictive check and objective function value. A drop in objective function value of […] for nested models with one added parameter was considered a significant improvement in model fit.

LID = conditions: cited from earlier work
[3] = system: unilaterally 6-OHDA-lesioned rats; conditions: zolmitriptan administered alone; WO2012/048710; cited from earlier work
[4] = Example VI, buspirone 0.25 or 0.5 mg/kg s.c., tandospirone 1 or 2 mg/kg i.p., 25 min before test
[5] = batch 0614/2012, non-linear mixed effects modelling
[6] = batch 0614/2012, non-linear mixed effects modelling, value (% CV)

O=C1CC2(CCCC2)CC(=O)N1CCCCN1CCN(c2ncccn2)CC1 [buspirone, 8-[4-(4-pyrimidin-2-ylpiperazin-1-yl)butyl]-8-azaspiro[4.5]decane-7,9-dione]
Effect on Parkinson's disease or dyskinesia (Parkinson's disease; doses 10-60 mg/day): did not have any effects on Parkinson's disease or dyskinesia
Disability ratings (Parkinson's disease; higher doses (100 mg/day)): significant worsening of disability ratings
Effect on dyskinesia (Parkinson's disease; higher doses (100 mg/day)): reduced dyskinesia
L-DOPA-induced dyskinesia (AIMs) ([1]; Example I, buspirone 0.5 mg/kg i.p. given alone): only partly reduced AIM
L-DOPA-induced dyskinesia (AIMs) [1, 4]: significantly reduced L-DOPA-induced dyskinesia
CL/F IIV (inter-individual variability) [2, 5]: 37%
ka IIV (inter-individual variability) [2, 5]: 5.4%
tvQ/F (inter-compartmental clearance) [2, 6]: 18 (11) L/h/kg
tvTlag (absorption lag-time) [2, 6]: no observable lag-time
tvV2/F (volume of peripheral compartment) [2, 6]: 1259 (29) L/kg
tvV/F (volume of central compartment) [2, 6]: 3.9 (26) L/kg
tvka (absorption rate) [2, 6]: 1.0 (13) h^-1
tyCL/F (clearance) [2, 6]: 13 (124) L/h/kg
Time of maximum plasma concentration [2]: around 0.5 h

Fc1ccc(-c2cncc(CNC[C@H]3CCc4ccccc4O3)c2)cc1 [sarizotan, 1-[(2R)-3,4-dihydro-2H-chromen-2-yl]-N-([5-(4-fluorophenyl)pyridin-3-yl]methyl)methanamine]
Effect on LID (LID; phase 2A study and open labeled study): reduced LID
Effect compared to placebo (LID; several large phase 2b studies): no significant effects

O=C1[C@@H]2[C@@H]3CC[C@@H](C3)[C@@H]2C(=O)N1CCCCN1CCN(c2ncccn2)CC1 [tandospirone, (1R,2R,6S,7S)-4-{4-[4-(pyrimidin-2yl)piperazin-1-yl]butyl}-4-azatricyclo[5.2.1.02,6]decane-3,5-dione]
L-DOPA induced AIMs ([1]; tandospirone 1 mg/kg i.p. alone): partially and briefly reduce AIMs
L-DOPA induced AIMs ([1]; tandospirone 2 mg/kg i.p. alone): partially and briefly reduce AIMs
L-DOPA-induced dyskinesia (AIMs) [1, 4]: significantly reduced L-DOPA-induced dyskinesia

CN(C)CCc1c[nH]c2ccc(C[C@H]3COC(=O)N3)cc12 [zolmitriptan, (S)-4-({3-[2-(dimethylamino)ethyl]-1H-indol-5-yl}methyl)-1,3-oxazolidin-2-one]
Inhibition of LID in an animal model for LID [3]: generally fails to inhibit LID
Time plasma concentration is sustained above limit of quantification ([2]; batch 0614/2012, LLOQ 0.5 ng/mL): 12 h
Absorption rate, slower compared to buspirone ([2]; batch 0614/2012, model): 3 fold
V/F IIV (inter-individual variability) [2, 5]: 0.1%
tvTlag (absorption lag-time) [2, 6]: 0.44 h
tvV/F (volume of central compartment) [2, 6]: 16 (62) L/kg
tvka (absorption rate) [2, 6]: 0.32 (55) h^-1
tyCL/F (clearance) [2, 6]: 7.0 (11) L/h/kg
tvTlag (absorption lag-time) ([2]; batch 0614/2012, non-linear mixed effects modelling, value (% CV), listed as Zolmitriptan): 0.44 (3.8) h
Time of maximum plasma concentration [2]: 4 h
